# From paper PMC9000710, “Synthesis and Hemostatic Activity of New Amide Derivatives” (Molecules, 2022)
# Legend:
# human blood plasma [1] = experiment: Prothrombin time (PT) clotting assay; format: biochemical
# Description: (§1) Human blood plasma was isolated from fresh buffy coats (collected onto the citrate-dextrose solution—ACD) purchased from the Regional Centre of Blood Donation and Blood Treatment in Lodz, Poland. In the isolation procedure, the buffy coats (60 mL units) were divided into volumes of 10 mL and centrifuged (4000 rpm/15 min) in 15 mL tubes. Next, 1 mL solutions of each amide 1–8 were prepared in distilled water at concentrations of 10, 25, and 50 mg/L. Then, 450 μL of plasma and 50 μL of each amide at the tested concentrations were placed into 1.5 mL vials. The vials were vortexed (Vortex Biosan V-1 plus), incubated at 37 °C on a thermoblock (Dry Block Thermostat Biosan TDB-120), and analyzed using a Kselmed K-3002 OPTIC coagulometer (Grudziądz, Poland), based on the manufacturer’s protocols (described below). The control sample was native blood plasma, untreated with any of the examined substances.
# (§2) Fifty microliters of control plasma and plasma samples treated with the amides were transferred to measuring cuvettes and placed in the thermoblock module (37 °C) of a coagulometer (KSELMED, K-3002 Optic). Then, 100 μL of Dia-PT reagent (DIAGON Kft. Hungary; cat. no. 81100) was added. Measurements were started immediately.
# human blood plasma [2] = experiment: Thrombin time (TT) clotting assay; format: biochemical
# Description: as §1
# Both 100 μL of control plasma and plasma samples treated with the amides were transferred to measuring cuvettes, which were placed in the thermoblock module (37 °C) of the coagulometer (KSELMED K-3002 Optic). Then, 100 μL of thrombin solution (4.5 U/mL, in 0.9% NaCl; Biomed, Lublin, Poland) was added to the cuvette. Measurements were started immediately.
# human blood plasma [3] = experiment: Activated partial thromboplastin time (aPTT) clotting assay; format: biochemical
# Description: as §1
# as §2, with “of the” for “of a”, “Then, 50” for “Then, 100”, “of Dia-APTT” for “of Dia-PT”, “no. 72048) was added. The mixture was incubated for 180 s at 37 °C. Finally, 50 μL of reagent Dia-CaCl2 (DIAGON Kft. Hungary; cat. no. 41192)” for “no. 81100)”
# erythrocytes = experiment: Hemolysis assay (stability of erythrocytes); format: cell-based, human; settings: c 500 mg/L
# Description: (§3) Heparinized whole blood was used from a healthy volunteer. The whole blood (10 mL) was diluted with saline solution (90 mL). For each UV-Vis measurement, 2.5 mL of diluted blood was used. For each blood sample, 1 mL of a saline solution containing hydrochlorides 1–8 at concentrations of 5, 50, and 500 mg/L was added. As a control were used blood samples with the addition of 1% solution of DMSO in saline and 1% solution of SDS in saline. In all cases, the measurements were repeated twice for each concentration. […] The cells were centrifuged, and the absorbance of the supernatant, which contained plasma and lysed erythrocytes, was measured at 540 nm. The percentage of lysis was calculated from a standard curve of lysed erythrocytes treated with SDS [52].
# [4] = Hemolysis assay (stability of erythrocytes); format: cell-based, human; settings: male, human, heparinized whole blood diluted with saline (erythrocytes); for hemolysis at 45 min, 5 mg/L / hemolysis at 120 min, 5 mg/L / hemolysis at 240 min, 5 mg/L: c 5 mg/L; for hemolysis at 45 min, 50 mg/L / hemolysis at 120 min, 50 mg/L / hemolysis at 240 min, 50 mg/L: c 50 mg/L; for hemolysis at 120 min, 500 mg/L / hemolysis at 240 min, 500 mg/L / hemolysis at 45 min, 500 mg/L: c 500 mg/L
# Description: as §3
# human blood plasma [5] = experiment: Clot formation and fibrinolysis (CFF) assay; format: biochemical; settings: for Amax (maximum of fibrin clot absorbance at 360 nm) / VmaxC (of Fibrin Polymerization) / VmaxF (of Fibrin Clot Lysis): control plasma assumed as 100%, mean ± SD, n = 5–7; for effect on fibrin polymerization (VmaxC) in words: tested at 10, 25, 50 mg/L
# Excerpt: The CFF assay enables analysis of both the blood plasma coagulation process and fibrinolysis efficiency. The thrombin enzyme in the reagent mixture initiates blood plasma fibrinogen polymerization, leading to an increase in absorbance in the sample until the maximal absorbance (Amax) is attained. The fibrinolytic activity of blood plasma is induced by the tissue-type plasminogen activator (t-PA). The activation of fibrinolysis in the tested samples leads to fibrin clot degradation and decreases the absorbance to the baseline.
# Figure 11 An exemplary curve of blood plasma coagulation and clot lysis recorded during the clot formation and fibrinolysis (CFF) assay. The first step in the CFF test involves activation of the blood plasma coagulation cascade and fibrin clot formation (1). It is characterized by the maximal velocity of the fibrin polymerization parameter (VmaxC). The maximal absorbance (Amax) peak corresponds to the fibrin stabilization phase and is an indicator of fibrin clot thickness (2). The third step of the CFF assay covers the activation of fibrinolytic mechanisms and fibrin clot degradation (3) and is described by the maximal velocity of clot lysis (VmaxF).
# Thrombin was purchased from BioMed (Lublin, Poland). A tissue-type plasminogen activator (Actilyse®) was purchased from Boehringer Ingelheim, Ingelheim am Rhein, Germany. Kinetic measurements were executed using a SpectrostarNano microplate spectrophotometer (BMG LabTech, Ortenberg, Germany).
# Measurements were performed using a kinetic model, as described in our previous work. Briefly, blood plasma was preincubated with the examined substances (at final concentrations of 10, 25, and 50 mg/L) for 15 min at 37 °C. Then, 100 μL of blood plasma was added to microtiter plate wells, which was followed by 200 μL of the reagent mixture (0.75 U/mL thrombin, 225 ng/mL t-PA and 7.5 mM CaCl2) suspended in tris-buffered saline (0.05 M TBS, 0.9% NaCl; pH 7.4). Measurements of absorbance changes were started immediately and continued for 60 min at 37 °C, λ = 360 nm. The following parameters were used to determine the effects of the examined substances on the coagulation and fibrinolytic properties of the blood plasma: the maximal velocity of fibrinogen polymerization (VmaxC), which is an indicator of the plasma coagulation efficiency; the maximal absorbance (Amax), which is an indicator of the fibrin clot stabilization and its thickness; the maximal velocity of clot lysis (VmaxF), which is an indicator of blood plasma fibrinolytic activity.
Structure (SMILES),PT Time [% of Control] (human blood plasma [1]; c 10 mg/L),PT Time [% of Control] (human blood plasma [1]; c 25 mg/L),PT Time [% of Control] (human blood plasma [1]; c 50 mg/L),TT Time [% of Control] (human blood plasma [2]; c 10 mg/L),TT Time [% of Control] (human blood plasma [2]; c 25 mg/L),TT Time [% of Control] (human blood plasma [2]; c 50 mg/L),aPTT Time [% of Control] (human blood plasma [3]; c 10 mg/L),aPTT Time [% of Control] (human blood plasma [3]; c 25 mg/L),aPTT Time [% of Control] (human blood plasma [3]; c 50 mg/L),"hemolysis at 45 min, 5 mg/L [4]","hemolysis at 45 min, 50 mg/L [4]","hemolysis at 120 min, 50 mg/L [4]","hemolysis at 240 min, 50 mg/L [4]","hemolysis at 120 min, 500 mg/L [4]","hemolysis at 240 min, 500 mg/L [4]",Amax (maximum of fibrin clot absorbance at 360 nm) (human blood plasma [5]; 10 mg/L),VmaxC (of Fibrin Polymerization) (human blood plasma [5]; 10 mg/L),VmaxF (of Fibrin Clot Lysis) (human blood plasma [5]; 10 mg/L),Amax (maximum of fibrin clot absorbance at 360 nm) (human blood plasma [5]; 25 mg/L),VmaxC (of Fibrin Polymerization) (human blood plasma [5]; 25 mg/L),also measured
"Cl.NCCCCCC(=O)NCC(=O)O [Amide 1, 2-(6-Aminohexanamido)acetic acid hydrochloride]",96.3 ± 2.5 % of Control,95.0 ± 2.9 % of Control,95.7 ± 2.2 % of Control,95.9 ± 6.3 % of Control,96.1 ± 6.8 % of Control,94.3 ± 8.3 % of Control,108.3 ± 11.9 % of Control,105.1 ± 7.7 % of Control,101.9 ± 9.3 % of Control,0%,0.5%,0.18%,0.35%,0.56%,0.42%,105.98 ± 4.31 %,106.12 ± 4.28 %,99.08 ± 9.93%,107.24 ± 8.91%,105.66 ± 6.27%,"prothrombin time, effect versus control in words (human blood plasma [1]; at all concentrations (10, 25, 50 mg/L)): significantly decreased; aPTT, effect versus control in words (human blood plasma [3]; tested at 10, 25, 50 mg/L): not statistically significant; Hemolysis [%] (erythrocytes; 45 min): 0.27%; Hemolysis [%] (erythrocytes; 120 min): 0.59%; Hemolysis [%] (erythrocytes; 240 min): 0.58%; fibrinolytic activity (VmaxF), effect in words (human blood plasma [5]; 50 µg/mL): no statistically significant effect; VmaxF (of Fibrin Clot Lysis) (human blood plasma [5]; 25 mg/L): 87.32 ± 20.27%; Amax (maximum of fibrin clot absorbance at 360 nm) (human blood plasma [5]; 50 mg/L): 104.62 ± 9.46%; VmaxC (of Fibrin Polymerization) (human blood plasma [5]; 50 mg/L): 104.20 ± 3.85 %; VmaxF (of Fibrin Clot Lysis) (human blood plasma [5]; 50 mg/L): 95.58 ± 15.97%; effect on fibrin polymerization (VmaxC) in words (human blood plasma [5]): Mild pro-coagulant effects"
"Cl.NCC(=O)NCc1ccc(C(=O)O)cc1 [Amide 6, 4-((2-Aminoacetamido)methyl)benzoic acid hydrochloride]",96.1 ± 4.4 % of Control,95.8 ± 4.3 % of Control,93.5 ± 7.1 % of Control,92.5 ± 3.0 % of Control,92.3 ± 2.5 % of Control,92.8 ± 4.2 % of Control,96.1 ± 4.2 % of Control,97.0 ± 3.5 % of Control,98.3 ± 3.6 % of Control,0.38%,0%,0.11%,0.2%,0.68%,0.31%,105.45 ± 5.46%,104.68 ± 3.05 %,98.41 ± 14.71%,102.41 ± 5.56%,103.10 ± 6.82%,"TT, effect versus control in words (human blood plasma [2]; all used concentrations (10, 25, 50 mg/L)): shorter TT than the control sample; hemolysis at 120 min, 5 mg/L [4]: 0.56%; hemolysis at 240 min, 5 mg/L [4]: 0.19%; hemolysis at 45 min, 500 mg/L [4]: 0.41%; VmaxF (of Fibrin Clot Lysis) (human blood plasma [5]; 25 mg/L): 100.06 ± 21.96%; Amax (maximum of fibrin clot absorbance at 360 nm) (human blood plasma [5]; 50 mg/L): 102.15 ± 2.46%; VmaxC (of Fibrin Polymerization) (human blood plasma [5]; 50 mg/L): 101.11 ± 4.77%; VmaxF (of Fibrin Clot Lysis) (human blood plasma [5]; 50 mg/L): 91.08 ± 15.49%; melting point: 235 to 238 °C"
"Cl.NCCCCCC(=O)NCc1ccc(C(=O)O)cc1 [Amide 2, 4-((6-Aminohexanamido)methyl)benzoic acid hydrochloride]",97.0 ± 4.8 % of Control,96.1 ± 2.2 % of Control,95.5 ± 2.5 % of Control,99.0 ± 1.8 % of Control,98.9 ± 4.7 % of Control,95.9 ± 6.8 % of Control,98.5 ± 8.0 % of Control,101.0 ± 13.1 % of Control,101.9 ± 14.0 % of Control,0.41%,0.11%,0.74%,0.3%,0.21%,0.43%,105.29 ± 6.41%,103.26 ± 3.98%,75.81 ± 17.04 %,110.74 ± 4.86 %,106.30 ± 3.60 %,"prothrombin time, effect versus control in words (human blood plasma [1]; two higher concentrations (25 and 50 mg/L)): significantly decreased; hemolysis at 120 min, 5 mg/L [4]: 0.21%; hemolysis at 240 min, 5 mg/L [4]: 0.65%; hemolysis at 45 min, 500 mg/L [4]: 1.03%; VmaxF (of Fibrin Clot Lysis) (human blood plasma [5]; 25 mg/L): 79.60 ± 10.55 %; Amax (maximum of fibrin clot absorbance at 360 nm) (human blood plasma [5]; 50 mg/L): 110.77 ± 9.85 %; VmaxC (of Fibrin Polymerization) (human blood plasma [5]; 50 mg/L): 105.59 ± 3.74 %; VmaxF (of Fibrin Clot Lysis) (human blood plasma [5]; 50 mg/L): 85.69 ± 8.80 %; effect on fibrin polymerization (VmaxC) in words (human blood plasma [5]): Mild pro-coagulant effects; melting point: 199 to 201 °C"
